In patent US20240317721A1, “PYRAZOLYL DERIVATIVES AS INHIBITORS OF THE KRAS MUTANT PROTEIN” (NOVARTIS AG, priority 2021, published 2024):

The compounds below were run against KRasG12C (M1-K169, biotinylated on the N-terminus) (Homo sapiens (Human), UniProt P01116, G12C) (assay: Covalent competition assay: scintillation proximity assay (SPA) quantifying covalent modification of KRASG12C). Conditions: competition with radiolabeled covalent probe (Compound B/Compound A), 2 hours incubation, 10 nM KRasG12C.
Format: binding
Method in brief: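 Scintillation proximity readout after streptavidin bead capture (30 min) of biotinylated KRasG12C(M1-K169):GDP, 10 nM final, which was covalently labelled over 2 h by 25 nM radio-probe plus 475 nM cold probe unless blocked by compound.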

| SMILES | IC50 |
| --- | --- |
| C=CC(=O)N1CC2(CC(n3nc(N4CCN(CC(C)(C)O)CC45CCC5)c(-c4c(Cl)c(C)cc5[nH]nc(N)c45)c3C)C2)C1 (single isomer, unassigned) [Example 117b, 1-(6-(4-(3-amino-5-chloro-6-methyl-1H-indazol-4-yl)-3-(8-(2-hydroxy-2-methylpropyl)-5,8-diazaspiro[3.5]nonan-5-yl)-5-methyl-1H-pyrazol-1-yl)-2-azaspiro[3.3]heptan-2-yl)prop-2-en-1-one] | 1600 nM |
| C=CC(=O)N1CC2(CC(n3nc(N4CC[C@@H](CN5CCOCC56COC6)CC4(C)C)c(-c4c(C)c(Cl)cc5[nH]ncc45)c3C)C2)C1 (single isomer, unassigned) [Example 302a] | > 5000 nM |
| C=CC(=O)N1CC2(CC(n3nc(N4CCN(C5CCOCC5)C[C@@]4(CC)C(F)F)c(-c4c(Cl)c(C)cc5[nH]ncc45)c3C)C2)C1 (single isomer, unassigned) [Example 156a] | > 5000 nM |
| C=CC(=O)N1CC2(CC(n3nc(N4CCC(N5C6CCC5COC6)CC4(C)C)c(-c4c(Cl)c(C)cc5[nH]ncc45)c3C)C2)C1 (single isomer, unassigned) [Example 74b] | 26 nM |
| C=CC(=O)N1CC2(CC(n3nc(N4CC[C@@H](CN5CCN(C(C)=O)CC5)CC4(C)C)c(-c4c(Cl)c(Cl)cc5[nH]ncc45)c3C)C2)C1 (single isomer, unassigned) [Example 319a] | 2700 nM |
| C=CC(=O)N1CC2(CC(n3nc(N4CCN(C[C@@H]5COCCO5)CC4(C)C)c(-c4c(Cl)c(Cl)cc5[nH]ncc45)c3C)C2)C1 (single isomer, unassigned) [Example 172a] | 3900 nM |
| C=CC(=O)N1CC2(CC(n3nc(N4CC[C@@H](CN5CC6CC(C5)N6C(C)=O)CC4(C)C)c(-c4c(Cl)c(Cl)cc5[nH]ncc45)c3C)C2)C1 (single isomer, unassigned) [Example 301b] | < 5 nM |
| C=CC(=O)N1CC2(CC(n3nc(N4CCC(C)(O)CC4(C)C)c(-c4c(Cl)c(C)cc5[nH]ncc45)c3C)C2)C1 (single isomer, unassigned) [Example 27a, 1-(6-(4-(5-chloro-6-methyl-1H-indazol-4-yl)-3-(4-hydroxy-2,2,4-trimethylpiperidin-1-yl)-5-methyl-1H-pyrazol-1-yl)-2-azaspiro[3.3]heptan-2-yl)prop-2-en-1-one] | 2700 nM |
| C=CC(=O)N1CC2(CC(n3nc(N4CC[C@@H](OCCN5CCOCC5)CC4(C)C)c(-c4c(Cl)c(Cl)cc5[nH]ncc45)c3C)C2)C1 (single isomer, unassigned) [Example 110a] | > 5000 nM |
| C=CC(=O)N1CC2(CC(n3nc(N4CCN(CCOC)C[C@@]4(C)C(F)F)c(-c4c(Cl)c(C)cc5[nH]ncc45)c3C)C2)C1 (single isomer, unassigned) [Example 179a] | > 5000 nM |
| C=CC(=O)N1CC2(CC(n3nc(N4CCC(N5C6CCC5COC6)CC4(C)C)c(-c4c(Cl)c(C)cc5[nH]ncc45)c3C)C2)C1 [Example 75a, 1-(6-(3-(4-((1R,5S)-3-oxa-8-azabicyclo[3.2.1]octan-8-yl)-2,2-dimethylpiperidin-1-yl)-4-(5-chloro-6-methyl-1H-indazol-4-yl)-5-methyl-1H-pyrazol-1-yl)-2-azaspiro[3.3]heptan-2-yl)prop-2-en-1-one] | > 5000 nM |
| C=CC(=O)N1CC2(CC(n3nc(N4CCN(CC(C)(C)O)C[C@@]4(C)C(F)F)c(-c4c(Cl)c(C)cc5[nH]ncc45)c3C)C2)C1 (single isomer, unassigned) [Example 166a] | > 5000 nM |
| C=CC(=O)N1CC2(CC(n3nc(N4CCN(C5(C)COC5)CC45CCC5)c(-c4c(Cl)c(C)cc5[nH]ncc45)c3C)C2)C1 (single isomer, unassigned) [Example 191a, 1-(6-(4-(5-Chloro-6-methyl-1H-indazol-4-yl)-5-methyl-3-(8-(3-methyloxetan-3-yl)-5,8-diazaspiro[3.5]nonan-5-yl)-1H-pyrazol-1-yl)-2-azaspiro[3.3]heptan-2-yl)prop-2-en-1-one] | > 5000 nM |
| C=CC(=O)N1CC2(CC(n3nc(N4CCN(C(C)=O)CC4)c(-c4c(Cl)ccc5[nH]ncc45)c3C)C2)C1C (single isomer, unassigned) [Example 198a, 1-(6-(3-(4-acetylpiperazin-1-yl)-4-(5-chloro-1H-indazol-4-yl)-5-methyl-1H-pyrazol-1-yl)-1-methyl-2-azaspiro[3.3]heptan-2-yl)prop-2-en-1-one] | > 50000 nM |

Other lines, results leading:

| IC50 | SMILES |
| --- | --- |
| 634 nM | C=CC(=O)N1CC2(CC(n3nc(N4CCn5ccnc5C4(C)C)c(-c4c(Cl)c(C)cc5[nH]ncc45)c3C)C2)C1 (single isomer, unassigned) [Example 23b, 1-(6-(4-(5-chloro-6-methyl-1H-indazol-4-yl)-3-(8,8-dimethyl-5,6-dihydroimidazo[1,2-a]pyrazin-7(8H)-yl)-5-methyl-1H-pyrazol-1-yl)-2-azaspiro[3.3]heptan-2-yl)prop-2-en-1-one] |
| 23 nM | C=CC(=O)N1CC2(CC(n3nc(N4CC[C@@H](CN5CCOC6(COC6)C5)CC4(C)C)c(-c4c(Cl)c(C)cc5[nH]ncc45)c3C)C2)C1 (single isomer, unassigned) [Example 299b] |
| 5 nM | C=CC(=O)N1CC2(CC(n3nc(N4CCN(C5COC5)C[C@]4(C)CC)c(-c4c(Cl)c(Cl)cc5[nH]ncc45)c3C)C2)C1 (single isomer, unassigned) [Example 155b] |
| 33 nM | C=CC(=O)N1CC2(CC(n3nc(N4CC[C@@H](CN5CCN6C(=O)N(C)CC6C5)CC4(C)C)c(-c4c(Cl)c(Cl)cc5[nH]ncc45)c3C)C2)C1 (single isomer, unassigned) [Example 264b] |
| 928 nM | C=CC(=O)N1CC2(CC(n3nc(N4CCC(CN5C[C@@H]6C[C@H]5CO6)CC4(C)C)c(-c4c(Cl)c(Cl)cc5[nH]ncc45)c3C)C2)C1 (single isomer, unassigned) [Example 217a] |
| 1400 nM | C=CC(=O)N1CC2(CC(n3nc(N4CC[C@@H](CN5CCO[C@@H](CO)C5)CC4(C)C)c(-c4c(Cl)c(Cl)cc5[nH]ncc45)c3C)C2)C1 (single isomer, unassigned) [Example 247a] |
| 8 nM | C=CC(=O)N1CC2(CC(n3nc(N4CCN(c5ccnnc5)C[C@]4(C)CC)c(-c4c(Cl)c(C)cc5[nH]ncc45)c3C)C2)C1 (single isomer, unassigned) [Example 192b] |
| 7 nM | C=CC(=O)N1CC2(CC(n3nc(N4CCN(CC5COCCOC5)C[C@]4(C)CC)c(-c4c(Cl)c(C)cc5[nH]ncc45)c3C)C2)C1 (single isomer, unassigned) [Example 186b] |
| 12 nM | C=CC(=O)N1CC2(CC(n3nc(N4CC[C@@H](CN5CC6CC6(O)C5)CC4(C)C)c(-c4c(Cl)c(Cl)cc5[nH]ncc45)c3C)C2)C1 (single isomer, unassigned) [Example 257b] |
| 18 nM | C=CC(=O)N1CC2(CC(n3nc(N4CC[C@@H](CN5CCOC6(C5)CN(C(C)=O)C6)CC4(C)C)c(-c4c(Cl)c(Cl)cc5[nH]ncc45)c3C)C2)C1 (single isomer, unassigned) [Example 311b] |
| 1200 nM | C=CC(=O)N1CC2(CC(n3nc(N4CCN(CCOC)CC45CCC5)c(-c4c(Cl)c(C)cc5[nH]ncc45)c3C)C2)C1 (single isomer, unassigned) [Example 71a, 1-(6-(4-(5-chloro-6-methyl-1H-indazol-4-yl)-3-(8-(2-methoxyethyl)-5,8-diazaspiro[3.5]nonan-5-yl)-5-methyl-1H-pyrazol-1-yl)-2-azaspiro[3.3]heptan-2-yl)prop-2-en-1-one] |
| 6 nM | C=CC(=O)N1CC2(CC(n3nc(N4CC[C@@H](CN5CC6(C5)CN(C)C(=O)N6C)CC4(C)C)c(-c4c(Cl)c(Cl)cc5[nH]ncc45)c3C)C2)C1 (single isomer, unassigned) [Example 296b] |
| 5 nM | C=CC(=O)N1CC2(CC(n3nc(N4CCN(C5COC5)C[C@]4(C)CC)c(-c4c(Cl)c(C)cc5[nH]ncc45)c3C)C2)C1 (single isomer, unassigned) [Example 133b] |
| 7 nM | C=CC(=O)N1CC2(CC(n3nc(N4CCC(CN5CCOCC5)CC4(C)CC)c(-c4c(Cl)c(C)cc5[nH]ncc45)c3C)C2)C1 (single isomer, unassigned) [Example 222b, 1-(6-(4-(5-chloro-6-methyl-1H-indazol-4-yl)-3-(2-ethyl-2-methyl-4-(morpholinomethyl)piperidin-1-yl)-5-methyl-1H-pyrazol-1-yl)-2-azaspiro[3.3]heptan-2-yl)prop-2-en-1-one] |
| 5 nM | C=CC(=O)N1CC2(CC(n3nc(N4CC[C@@H](CN5CCC6COCC65)CC4(C)C)c(-c4c(C)c(Cl)cc5[nH]ncc45)c3C)C2)C1 (single isomer, unassigned) [Example 306b, 1-(6-(4-(6-chloro-5-methyl-1H-indazol-4-yl)-3-((R)-4-(((3aR*,6aR*)-hexahydro-1H-furo[3,4-b]pyrrol-1-yl)methyl)-2,2-dimethylpiperidin-1-yl)-5-methyl-1H-pyrazol-1-yl)-2-azaspiro[3.3]heptan-2-yl)prop-2-en-1-one] |
| 536 nM | C=CC(=O)N1CC2(CC(n3nc(N4CC[C@@H](CN5CCOCC5)CC4(C)C)c(-c4c(Cl)c(Cl)cc5[nH]nc(N)c45)c3C)C2)C1 (single isomer, unassigned) [Example 241b] |
| 27 nM | C=CC(=O)N1CC2(CC(n3nc(N4CC[C@@H](CN5CCN(S(C)(=O)=O)CC5)CC4(C)C)c(-c4c(Cl)c(Cl)cc5[nH]ncc45)c3C)C2)C1 (single isomer, unassigned) [Example 298b] |
| 10 nM | C=CC(=O)N1CC2(CC(n3nc(N4CC[C@@H](CN5CCOCC56COC6)CC4(C)C)c(-c4c(C)c(Cl)cc5[nH]ncc45)c3C)C2)C1 (single isomer, unassigned) [Example 302b] |
| 9 nM | C=CC(=O)N1CC2(CC(n3nc(N4CC[C@@H](CN5CCN(C(C)=O)CC5)CC4(C)C)c(-c4c(Cl)c(Cl)cc5[nH]ncc45)c3C)C2)C1 (single isomer, unassigned) [Example 319b] |
